According to US11896573B2, “Pharmaceutical compositions and pharmacokinetics of a gamma-hydroxybutyric acid derivative” (priority 2020, dated 2024):

Test: Food effect and relative bioavailability crossover study, Compound (1) vs sodium oxybate
Details: 7.25 g Compound (1) oral; for AUC(0-inf) / AUC(0-t) / Cmax / half-life / Tmax: human, plasma, po, 7.25 g; for AUC(0-inf): Compound (1) plasma AUC0-inf; for Tmax: Compound (1) plasma Tmax

CC(C)[C@H](N)C(=O)OCCCC(=O)O [Compound (1), 4-((L-valyl)oxy)butanoic acid]
plasma Compound (1) AUC0-tlast, Adjusted Geometric Mean Ratio (Fed vs Fasted): 1.28
plasma Compound (1) Cmax, Adjusted Geometric Mean Ratio (Fed vs Fasted): 0.65
Compound (1) plasma AUC0-inf, Max (Fasted): 30.8 µg·h/mL
Compound (1) plasma AUC0-inf, Min (Fasted): 9.5 µg·h/mL
Compound (1) plasma AUC0-tlast, Max (Fasted): 36.1 µg·h/mL
Compound (1) plasma AUC0-tlast, Min (Fasted): 9.4 µg·h/mL
Compound (1) plasma Cmax, Max (Fasted): 43.6 µg/mL
Compound (1) plasma Cmax, Min (Fasted): 9.4 µg/mL
Compound (1) plasma T1/2, Max (Fasted): 1.90 h
Compound (1) plasma T1/2, Min (Fasted): 16.2 min
Compound (1) plasma AUC0-inf, Max (Fed): 39.0 µg·h/mL
Compound (1) plasma AUC0-inf, Min (Fed): 16.0 µg·h/mL
Compound (1) plasma AUC0-tlast, Max (Fed): 38.6 µg·h/mL
Compound (1) plasma AUC0-tlast, Min (Fed): 15.9 µg·h/mL
Compound (1) plasma Cmax, Max (Fed): 27.8 µg/mL
Compound (1) plasma Cmax, Min (Fed): 5.5 µg/mL
Compound (1) plasma T1/2, Max (Fed): 1.15 h
Compound (1) plasma T1/2, Min (Fed): 16.2 min
Compound (1) plasma Tmax, Max (Fed): 1.50 h
AUC(0-inf) (Mean, Fasted): 22400 ng·h/mL
AUC(0-inf) (Mean, Fed): 29000 ng·h/mL
AUC(0-inf) (Median, Fasted): 20400 ng·h/mL
AUC(0-inf) (Median, Fed): 29100 ng·h/mL
AUC(0-t) (Compound (1) plasma AUC0-tlast, Mean, Fasted): 23900 ng·h/mL
AUC(0-t) (Compound (1) plasma AUC0-tlast, Mean, Fed): 28800 ng·h/mL
AUC(0-t) (Compound (1) plasma AUC0-tlast, Median, Fasted): 22500 ng·h/mL
AUC(0-t) (Compound (1) plasma AUC0-tlast, Median, Fed): 29000 ng·h/mL
Cmax (Compound (1) plasma Cmax, Mean, Fasted): 27700 ng/mL
Cmax (Compound (1) plasma Cmax, Mean, Fed): 18100 ng/mL
Cmax (Compound (1) plasma Cmax, Median, Fasted): 27300 ng/mL
Cmax (Compound (1) plasma Cmax, Median, Fed): 17300 ng/mL
half-life (Compound (1) plasma T1/2, Mean, Fasted): 32.4 min
half-life (Compound (1) plasma T1/2, Mean, Fed): 38.4 min
half-life (Compound (1) plasma T1/2, Median, Fasted): 21 min
half-life (Compound (1) plasma T1/2, Median, Fed): 35.4 min
Tmax (Median, Fasted): 45 min
Tmax (Median, Fed): 30 min
AUC(0-t) (plasma Compound (1) AUC0-tlast, Adjusted Geometric Mean, Fasted): 21000 ng·h/mL
AUC(0-t) (plasma Compound (1) AUC0-tlast, Adjusted Geometric Mean, Fed): 27000 ng·h/mL
Cmax (plasma Compound (1) Cmax, Adjusted Geometric Mean, Fasted): 25400 ng/mL
Cmax (plasma Compound (1) Cmax, Adjusted Geometric Mean, Fed): 16500 ng/mL
